Results taken from the Bradley open melting point set (2014).
“And” between values parts separate entries of the source, which are not always exact repeats. Identical values can stand only once.

Row | SMILES | melting point
1 | O=C(O)c1cc([N+](=O)[O-])cc([N+](=O)[O-])c1 [3,5-dinitrobenzoic acid] | 206 °C
2 | COc1cccc(OC)c1OCC(=O)O [2,6-dimethoxyphenoxyacetic acid] | 81 °C
3 | OCc1ccccc1-c1ccccc1 [2-biphenylmethanol] | 49 °C
4 | C#CC(C)(C)C [3,3-dimethyl-1-butyne] | -78 °C
5 | Clc1c(Cl)c(Cl)c(Cl)c(Cl)c1Cl [Hexachlorobenzene] | 230 °C
6 | O=C1OC(Sc2ccccc2)c2ccccc21 (configuration not stated) [3-(phenylsulfanyl)-2-benzofuran-1(3H)-one] | 103 °C
7 | CCC(=O)c1cc(O)ccc1O [2',5'-dihydroxypropiophenone] | 98 °C
8 | CC(=O)c1ccccc1[N+](=O)[O-] [2'-nitroacetophenone] | 27 °C
9 | NNC(=O)COc1ccc(Cl)cc1Cl [2,4-dichlorophenoxyacetic acid hydrazide] | 151 °C
10 | OCc1cccc(B(O)O)c1 [3-(hydroxymethyl)benzeneboronic acid] | 96 °C
11 | O=C(CCl)c1ccc(O)c(O)c1 [2-chloro-3',4'-dihydroxyacetophenone] | 174 °C
12 | NC(=O)c1cc(F)ccc1F [2,5-difluorobenzamide] | 112 °C
13 | CC(C)c1ccc(O)cc1 [4-isopropylphenol] | 60 °C
14 | OC(CS)C(O)CS (configuration not stated) [1,4-Disulfanylbutane-2,3-diol] | 43 °C
15 | CC(CC1CC(=O)c2c3c(c4ccccc4c2O1)OC1CC(=O)OC31)O[Si](C)(C)C(C)(C)C (configuration not stated) | 132 °C
16 | CC(=O)C(C)=NO [2,3-butanedione monoxime] | 76 °C
17 | C=CC(=O)OCCCC [N-butyl acrylate] | -64 °C
18 | COc1cc(OC)c(C=O)c(OC)c1 [2,4,6-trimethoxybenzaldehyde] | 121 °C
19 | O=C1c2ccccc2C(=O)N1c1nc2ccccc2[nH]1 [2-(1H-Benzimidazol-2-yl)-1H-isoindole-1,3(2H)-dione] | 274 °C
20 | Nc1cccc(O)c1 [3-Aminophenol] | 125 °C
21 | C=C(C)CC [2-methyl-1-butene] | -137 °C
22 | CC(=O)OCCC(C)C [3-Methylbutyl acetate] | -100 °C
23 | CC(C)(C)c1ccc(C(C)(C)C)cc1 [1,4-di-tert-butylbenzene] | 77 °C
24 | COc1cc(O)cc(OC)c1 [3,5-dimethoxyphenol] | 47 °C
25 | N#Cc1cccc(C(F)(F)F)c1 [3-(trifluoromethyl)benzonitrile] | 16 °C
26 | Cc1ccc(B(O)O)c(C)c1 [2,4-dimethylbenzeneboronic acid] | 206 °C

Row | SMILES | melting point
27 | O=S1(=O)OC(c2cc(Br)c(O)c(Br)c2)(c2cc(Br)c(O)c(Br)c2)c2ccccc21 | 204 °C
28 | Nc1c(Br)cc(Br)c2c1C(=O)c1ccccc1C2=O [1-Amino-2,4-dibromo-9,10-anthraquinone] | 226 °C
29 | Nc1cc2ccccc2cc1N [2,3-diaminonaphthalene] | 195 °C
30 | Nc1ccc(Cl)cc1N [4-Chlorobenzene-1,2-diamine] | 68.5 °C
31 | O=[N+]([O-])c1ccc(Cl)c(Cl)c1 [1,2-dichloro-4-nitrobenzene] | 41 °C
32 | CCCC(C)(CO)CO [2-methyl-2-propyl-1,3-propanediol] | 55 °C
33 | CC(=O)Nc1ccc(Cl)cc1F [2-fluoro-4-chloroacetanilide] | 157 °C
34 | CCOC(=O)Cc1ccccc1 [ethyl phenylacetate] | -29 °C
35 | OB(O)c1ccc(-c2ccccc2)c(F)c1 [2-fluorobiphenyl-4-boronic acid] | 246 °C
36 | N#CN [cyanamide] | 45 °C
37 | NCCO [2-Aminoethanol] | 11 °C
38 | O=[N+]([O-])c1cc([N+](=O)[O-])c(C2CO2)cc1C1CO1 (configuration not stated) [2,2'-(4,6-dinitrobenzene-1,3-diyl)dioxirane] | 154 °C
39 | Cc1ccccc1CCl [2-methylbenzyl chloride] | 2 °C
40 | Cc1nn(C)c(C)c1C=O [1,3,5-trimethyl-1h-pyrazole-4-carboxaldehyde] | 82 °C
41 | CC(=O)c1ccc(I)cc1 [1-(4-Iodophenyl)ethanone] | 84.8 °C and 85.3 °C
42 | c1ccc(OCC2CO2)cc1 (configuration not stated) [glycidyl phenyl ether] | 4 °C
43 | NC(=O)c1ccc(F)c(Cl)c1 [3-chloro-4-fluorobenzamide] | 146 °C
44 | COS(=O)(=O)c1ccc(C)cc1 [methyl_p-toluenesulfonate] | 79 °C
45 | Cc1cc(N)n[nH]1 [3-amino-5-methyl-1h-pyrazole] | 45 °C
46 | Nc1ccccc1C1C=c2ccccc2=N1 (configuration not stated) [2-(1H-Indol-2-yl)anilin] | 153 °C
47 | O=C(O)c1cc(Cl)ccc1/N=N/C1SC(=S)NC1=O (configuration not stated) | 211 °C
48 | CCCC(C)(COC(N)=O)COC(N)=O [meprobamate] | 104 °C
49 | Cc1ccc(C(N)=O)cc1C [3,4-dimethylbenzamide] | 102 °C
50 | CC(=O)ON(/C=C1\C(=O)C2(C)CCC1C2(C)C)c1ccccc1 (configuration not stated) | 163 °C
51 | CC(=O)c1ccccc1C(=O)O [2-acetylbenzoic_acid] | 116 °C
52 | Clc1nc2ccccc2s1 [2-chlorobenzothiazole] | 32 °C

Now from value to molecule:

Row | melting point | SMILES
53 | 171 °C | NNC(=O)c1ccncc1 [isoniazid]
54 | 50 °C | CCCCCCCCCCCCCCCCO [Hexadecan-1-ol]
55 | 201 °C | c1ccc([Si]2(c3ccccc3)O[Si](c3ccccc3)(c3ccccc3)O[Si](c3ccccc3)(c3ccccc3)O[Si](c3ccccc3)(c3ccccc3)O2)cc1 [octaphenylcyclotetrasiloxane]
56 | 228 °C | CCCC1C(=O)N2C(N(C)C)=Nc3ccc(C)cc3N2C1=O (configuration not stated) [apazone]
57 | 72 °C | Cc1cc(C)c(Br)cc1C [5-bromo-1,2,4-trimethylbenzene]
58 | 165 °C | Cc1c(C)c(C)c(C)c(C)c1C [hexamethylbenzene]
59 | -34 °C | CCCCC(=O)O [N-Valeric Acid]
60 | 29 °C | C=Cc1ccccc1O [o-vinyl_phenol]
61 | 95 °C | O=C(C(=O)c1ccccc1)c1ccccc1 [benzil]
62 | 34 °C | Clc1cc(Br)ccc1I [4-bromo-2-chloro-1-iodobenzene]
63 | 268 °C | O=C1CN(/N=C/c2ccc([N+](=O)[O-])o2)C(=O)N1 [Nitrofurantoin]
64 | 292 °C | CC(N)C(=O)O (configuration not stated) [alanine]
65 | 248 °C | O=C1Nc2c(Cl)ccc(Cl)c2C1=O [4,7-dichloroisatin]
66 | 105 °C | CCCCc1ccc(NC(C)=O)cc1 [N-(4-butylphenyl)acetamide]
67 | 50 °C | Oc1ccccc1C=Nc1ccccc1 [salicylideneaniline]
68 | -35 °C | C=CCCCCCCCCCC [Dodec-1-ene]
69 | 105 °C | O=C(O)Cc1ccc(Cl)cc1 [4-chlorophenylacetic acid]
70 | 84 °C | CCOC(=O)c1csnn1 [ethyl 1,2,3-thiadiazole-4-carboxylate]
71 | 296 °C and 295 °C | O=C1NC(=O)C(c2ccccc2)(c2ccccc2)N1 [phenytoin]
72 | 2 °C | CC1=CC(=O)CC1 [3-methyl-2-cyclopenten-1-one]
73 | 221 °C | C[C@]12CCC(=O)C=C1CC[C@@H]1[C@@H]2[C@@H](O)C[C@@]2(C)[C@H]1CC[C@]2(O)C(=O)CO [hydrocortisone]
74 | 5 °C | Cc1ccc(Cc2ccccc2)cc1 [4-methyldiphenylmethane]
75 | 106 °C | O=C(O)CCCCCCCC(=O)O [Azelaic Acid]
76 | 150 °C | CC(=O)Oc1ccc2c(C)cc(=O)oc2c1 [4-methylumbelliferyl acetate]
77 | 36 °C | COC(=O)c1ccc(C)c(C)c1 [methyl 3,4-dimethylbenzoate]

Row | melting point | SMILES
78 | 96 °C | CCC(=C(c1ccccc1)c1ccc(OCCN(C)C)cc1)c1ccccc1 [tamoxifen]
79 | 194 °C | COc1cc(N)c(Cl)cc1C(=O)NC1CCN(Cc2ccccc2)CC1 [clebopride]
80 | 3 °C | CC(=O)OCC(COC(C)=O)OC(C)=O [triacetin]
81 | 230 °C | CCCCNc1cc(C(=O)O)cc(S(N)(=O)=O)c1Oc1ccccc1 [Bumetanide]
82 | 300 °C | O=C(O)/C=C/C(=O)O [fumaric acid]
83 | 214 °C | Cc1cc(C(=O)O)ccc1Cl [4-chloro-3-methylbenzoic acid]
84 | 174 °C | CC[C@H](C)C(=O)O[C@H]1C[C@@H](C)C=C2C=C[C@H](C)[C@H](CC[C@@H]3C[C@@H](O)CC(=O)O3)[C@H]21 [Lovastatin]
85 | 123 °C | OB(O)c1ccc(OC(F)(F)F)cc1 [4-(trifluoromethoxy)benzeneboronic acid]
86 | 2 °C | CCOC(=O)C#CC(=O)OCC [diethyl acetylenedicarboxylate]
87 | 188 °C | O=C1CC(c2ccccc2)Oc2cc(O)ccc21 (configuration not stated) [7-hydroxyflavanone]
88 | 97 °C | CC(=O)c1cccc(N)c1 [m-aminoacetophenone]
89 | 194 °C | CC(C)(C)c1ccc(B(O)O)cc1 [4-tert-butylbenzeneboronic acid]
90 | -51 °C | O=C1CCCC1 [Cyclopentanone]
91 | 36 °C | N#Cc1ccc(F)cc1 [4-fluorobenzonitrile]
92 | 197 °C | CC(=O)NC(CCC(N)=O)C(=O)O (configuration not stated) [aceglutamide]
93 | 122 °C | O=C(O)c1ccccc1 [benzoic acid]
94 | 6 °C | CCCCCCCCCCCCCC [tetradecane]
95 | -6 °C | C=CCCCCC(=O)O [6-heptenoic acid]
96 | 21 °C | c1cncnc1 [pyrimidine]
97 | 57 °C | CC(=O)Oc1ccccc1O [catechol_monoacetate_(ortho)]
98 | 114 °C | CCCCCCCCCCCCCCCC(=O)OC[C@H](O)[C@H]1OC(=O)C(O)=C1O [L-ascorbic acid 6-palmitate]
99 | 134 °C | O=C(O)C=CC(=O)O [maleic acid]
100 | 263 °C | OB(O)c1ccc(F)cc1 [4-fluorobenzeneboronic acid]
101 | 133 °C | O=C(O)/C=C/c1ccccc1 [trans-cinnamic_acid]
102 | 121 °C | COc1cc(C(=O)NCCCCCC(=O)O)cc(OC)c1OC [capobenicacid]
